PubChem BioAssay (NCI)
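Exposure lasted 48 hours, with cells grown in 96-well plates and compounds tested at five concentrations. The concentration for 50% growth inhibition is given as GI50. Definition used: TGI = concentration required for complete inhibition of growth.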

Tests used:
Test in all cases: growth of human tumour cells (NCI), 48 h
CAKI-1 renal = test system: CAKI-1 renal
SF-295 CNS = test system: SF-295 CNS
HCT-15 colon = test system: HCT-15 colon
HCT-116 colon = test system: HCT-116 colon
SN12C renal = test system: SN12C renal
NCI-H23 lung = test system: NCI-H23 lung
K-562 leukemia = test system: K-562 leukemia
SF-268 CNS = test system: SF-268 CNS
SW-620 colon = test system: SW-620 colon
M14 melanoma = test system: M14 melanoma

COC1=CC(c2ccc[nH]2)=N/C1=C\c1[nH]c(C)c(CC(=O)NCc2ccccc2)c1C
GI50 (CAKI-1 renal): 1.48 µM | TGI (CAKI-1 renal): 2.85 µM | GI50 (SF-295 CNS): 1.47 µM | TGI (SF-295 CNS): 2.89 µM | GI50 (HCT-15 colon): 1.06 µM | TGI (HCT-15 colon): 2.45 µM

CCOC(=O)NC(=O)c1cn(CCN(CCO)C(=O)NCCCCCCNC(=O)N(CCO)CCn2cc(C(=O)NC(=O)OCC)c(=O)[nH]c2=O)c(=O)[nH]c1=O
TGI (HCT-116 colon): > 100 µM | TGI (CAKI-1 renal): > 100 µM | TGI (SN12C renal): > 100 µM | TGI (SF-295 CNS): > 100 µM | TGI (NCI-H23 lung): > 100 µM | TGI (K-562 leukemia): > 100 µM | TGI (HCT-15 colon): > 100 µM | TGI (SF-268 CNS): > 100 µM | TGI (SW-620 colon): > 100 µM

N/C(=C\c1ccc(/C=C(\NC(=O)c2ccccc2)c2nc3c([nH]2)C(=O)c2ccccc2C3=O)cc1)c1nc2c([nH]1)C(=O)c1ccccc1C2=O
TGI (HCT-116 colon): 29.5 µM | TGI (CAKI-1 renal): 60.7 µM | TGI (SN12C renal): 32.8 µM | TGI (SF-295 CNS): 30.9 µM | TGI (NCI-H23 lung): 32.8 µM | TGI (K-562 leukemia): 43.5 µM | TGI (HCT-15 colon): 37.7 µM | TGI (SF-268 CNS): 30.6 µM | TGI (SW-620 colon): 50.5 µM | TGI (M14 melanoma): 30.4 µM

COc1nc2ccc(Cl)c(C(O)c3ccccc3)c2nc1OC (centres undefined)
TGI (HCT-116 colon): 32.7 µM | TGI (CAKI-1 renal): 45.3 µM | TGI (SN12C renal): 40.3 µM | TGI (SF-295 CNS): 44.8 µM | TGI (NCI-H23 lung): 61.2 µM | TGI (K-562 leukemia): > 100 µM | TGI (HCT-15 colon): 50.1 µM | TGI (SF-268 CNS): 84.5 µM | TGI (SW-620 colon): 82.7 µM | TGI (M14 melanoma): 38.8 µM

COC(Cc1cc(C(O)(c2ccc(C(C)(C)C)cc2)c2cc(CC(OC)(c3cc(C(OC)(c4ccc(C(C)(C)C)cc4)c4ccc(C(C)(C)C)cc4)c(C)cc3C)c3cc(C(OC)(c4ccc(C(C)(C)C)cc4)c4ccc(C(C)(C)C)cc4)c(C)cc3C)c(C)cc2C)c(C)cc1C)(c1cc(C(OC)(c2ccc(C(C)(C)C)cc2)c2ccc(C(C)(C)C)cc2)c(C)cc1C)c1cc(C(OC)(c2ccc(C(C)(C)C)cc2)c2ccc(C(C)(C)C)cc2)c(C)cc1C
TGI (HCT-116 colon): > 75 µM | TGI (CAKI-1 renal): > 75 µM | TGI (SN12C renal): > 75 µM | TGI (SF-295 CNS): > 75 µM | TGI (NCI-H23 lung): > 75 µM | TGI (K-562 leukemia): > 75 µM | TGI (HCT-15 colon): > 75 µM | TGI (SF-268 CNS): > 75 µM | TGI (SW-620 colon): > 75 µM | TGI (M14 melanoma): > 75 µM

COc1cc(-c2n/c(=C\c3c(O)[nH]c4ccccc34)cc3c2=Nc2ccccc2-3)ccc1F
GI50 (HCT-116 colon): 4.09 µM | TGI (HCT-116 colon): 21.6 µM | GI50 (CAKI-1 renal): 38.5 µM | TGI (CAKI-1 renal): > 100 µM | GI50 (SN12C renal): 10.7 µM | TGI (SN12C renal): 34 µM | GI50 (SF-295 CNS): 24.4 µM | TGI (SF-295 CNS): > 100 µM | GI50 (NCI-H23 lung): 2.83 µM | TGI (NCI-H23 lung): 17.6 µM | GI50 (K-562 leukemia): 5.88 µM | TGI (K-562 leukemia): 62.1 µM | GI50 (HCT-15 colon): 17.2 µM | TGI (HCT-15 colon): > 100 µM | GI50 (SF-268 CNS): 10.6 µM | TGI (SF-268 CNS): 44.2 µM | GI50 (SW-620 colon): 4.15 µM | TGI (SW-620 colon): 86.7 µM | GI50 (M14 melanoma): 5.2 µM | TGI (M14 melanoma): 22.3 µM

CCCC[n+]1ccn(-c2nc3ccccc3n2C)c1
TGI (HCT-116 colon): > 100 µM | TGI (CAKI-1 renal): > 100 µM | TGI (SN12C renal): > 100 µM | TGI (SF-295 CNS): > 100 µM | TGI (NCI-H23 lung): > 100 µM | TGI (K-562 leukemia): > 100 µM | TGI (HCT-15 colon): > 100 µM | TGI (SW-620 colon): > 100 µM | TGI (M14 melanoma): > 100 µM

CN(CCO)CCC1COc2ccccc2O1 (centres undefined)
TGI (HCT-116 colon): > 10 µM | TGI (CAKI-1 renal): > 10 µM | TGI (SN12C renal): > 10 µM | TGI (SF-295 CNS): > 10 µM | TGI (NCI-H23 lung): > 10 µM | TGI (K-562 leukemia): > 10 µM | TGI (HCT-15 colon): > 10 µM | TGI (SF-268 CNS): > 10 µM | TGI (SW-620 colon): > 10 µM | TGI (M14 melanoma): > 10 µM
